Source: patent US20260069571A1, “DDR1 AND DDR2 INHIBITORS FOR THE TREATEMENT OF CANCER AND FIBROTIC DISEASES” (REDX PHARMA PLC, priority 2021, published 2026)

Columns and labels:
Recombinant human DDR1 = Recombinant human DDR1 (Homo sapiens (Human), UniProt Q08345); assay: LanthaScreen Eu Kinase Binding Assay, DDR1; conditions: DDR1 2.5 nM (aa440-876, GST tag), Kinase Tracer 178 5 nM; for IC50: read-out: DDR1 pIC50 (converted)
Experimental: (§1) DDR1 and DDR2 Biochemical Assay Method
(§2) The capacity of compounds to bind to DDR1 and DDR2 was quantified using a LanthaScreen Eu Kinase Binding Assay. Recombinant human DDR1 (2.5 nM; aa440-876 containing a GST tag) and DDR2 (1.75 nM; aa427-855 containing a GST tag) were diluted in assay buffer (50 mM HEPES pH7.3, 10 mM MgCl2, 1 mM EGTA and 0.01% Tween) with various concentrations of compound in a 384-well plate and a volume of 5 uL. After a 30-minute incubation at room temperature, 2.5 uL of Eu-anti GST antibody (diluted to 1 nM in assay buffer) plus Kinase Tracer 178 (diluted in assay buffer to 5 nM for DDR1 and 10 nM for DDR2) were added to the plate. Following 60-minute incubation at room temperature, time-resolved fluorescence was measured on a BMG Labtech PHERAstar plate reader. DMSO (1%) and reference compound (1 μM) were used to generate the Max and Min assay signals, respectively. Data was analysed using a four-parameter logistic model to calculate IC50 values, with at least two independent replicates were performed for each compound.

Recombinant human DDR2 = Recombinant human DDR2 (Homo sapiens (Human), UniProt Q16832); assay: LanthaScreen Eu Kinase Binding Assay, DDR2; conditions: DDR2 1.75 nM (aa427-855, GST tag), Kinase Tracer 178 10 nM; for IC50: read-out: DDR2 pIC50 (converted)
Sequence of Recombinant human DDR2 (Q16832 427-855): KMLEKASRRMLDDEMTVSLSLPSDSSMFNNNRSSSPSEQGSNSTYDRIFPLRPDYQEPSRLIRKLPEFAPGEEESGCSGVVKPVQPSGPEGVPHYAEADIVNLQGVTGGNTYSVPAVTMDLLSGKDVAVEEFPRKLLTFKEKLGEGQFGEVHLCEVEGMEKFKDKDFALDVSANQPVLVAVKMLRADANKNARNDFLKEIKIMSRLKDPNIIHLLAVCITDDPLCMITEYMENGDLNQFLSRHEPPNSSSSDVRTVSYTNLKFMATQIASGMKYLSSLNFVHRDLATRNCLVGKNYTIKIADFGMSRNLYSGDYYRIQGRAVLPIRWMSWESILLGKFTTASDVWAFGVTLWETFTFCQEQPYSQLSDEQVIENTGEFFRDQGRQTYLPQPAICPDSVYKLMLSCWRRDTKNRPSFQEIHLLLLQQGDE
Experimental: as §1, §2

Sequence of Recombinant human DDR1 (Q08345 other isoform, or with tags, fused parts or gaps): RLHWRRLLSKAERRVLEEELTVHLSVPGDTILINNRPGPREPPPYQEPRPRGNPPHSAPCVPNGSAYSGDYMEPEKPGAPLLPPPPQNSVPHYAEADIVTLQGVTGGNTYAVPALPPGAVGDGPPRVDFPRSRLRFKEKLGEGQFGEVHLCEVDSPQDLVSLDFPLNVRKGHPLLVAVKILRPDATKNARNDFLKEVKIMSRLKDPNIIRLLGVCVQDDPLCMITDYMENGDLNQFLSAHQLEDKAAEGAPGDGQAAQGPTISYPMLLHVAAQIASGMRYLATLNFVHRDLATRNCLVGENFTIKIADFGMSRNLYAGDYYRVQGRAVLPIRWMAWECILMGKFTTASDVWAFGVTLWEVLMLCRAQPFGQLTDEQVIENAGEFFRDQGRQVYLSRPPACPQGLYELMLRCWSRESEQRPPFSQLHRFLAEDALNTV

SMILES | IC50 (Recombinant human DDR1) [nM] | IC50 (Recombinant human DDR2) [nM] | DDR1 pIC50 (Recombinant human DDR1) | DDR2 pIC50 (Recombinant human DDR2)
Cn1ncc2cc(Nc3cccc4c3C(=O)N(CC(=O)Nc3cccc(C(F)(F)F)c3)C4)cnc21 [Example 59, 2-[7-[(1-methylpyrazolo[3,4-b]pyridin-5-yl)amino]-1-oxo-isoindolin-2-yl]-N-[3-(trifluoromethyl)phenyl]acetamide] | 10 to 100 | 100 to 1000 |  | 
N#Cc1cc(Nc2cccc3c2C(=O)N(CC(=O)NCC(F)(F)F)C3)cc2cn[nH]c12 [Example 60, 2-[7-[(7-cyano-1H-indazol-5-yl)amino]-1-oxo-isoindolin-2-yl]-N-(2,2,2-trifluoroethyl)acetamide] |  |  | A (pIC50>8) | A (pIC50>8)
Cc1n[nH]c2nc(Nc3cccc4c3C(=O)N(CC(=O)NCC(F)(F)F)C4)ccc12 [Example 61, 2-[7-[(3-methyl-1H-pyrazolo[3,4-b]pyridin-6-yl)amino]-1-oxo-isoindolin-2-yl]-N-(2,2,2-trifluoroethyl)acetamide] | 100 to 1000 |  |  | D (pIC50≤6)
Cc1n[nH]c2cc(Nc3cccc4c3C(=O)N(CC(=O)NCC(F)(F)F)C4)cc(F)c12 [Example 62, 2-[7-[(4-fluoro-3-methyl-1H-indazol-6-yl)amino]-1-oxo-isoindolin-2-yl]-N-(2,2,2-trifluoroethyl)acetamide] |  |  | A (pIC50>8) | A (pIC50>8)
Cc1n[nH]c2cc(Nc3cccc4c3C(=O)N(CC(=O)N[C@@H](C)C(F)(F)F)C4)cc(F)c12 [Example 63, 2-[7-[(4-fluoro-3-methyl-1H-indazol-6-yl)amino]-1-oxo-isoindolin-2-yl]-N-[(1S)-2,2,2-trifluoro-1-methyl-ethyl]acetamide] |  |  | A (pIC50>8) | A (pIC50>8)
Cc1n[nH]c2cc(Nc3cccc4c3C(=O)N(CC(=O)N3CCC[C@H]3C(F)(F)F)C4)cc(F)c12 [Example 64, 7-[(4-fluoro-3-methyl-1H-indazol-6-yl)amino]-2-[2-oxo-2-[(2S)-(trifluoromethyl)pyrrolidin-1-yl]ethyl]isoindolin-1-one] | < 10 | < 10 |  | 
Cc1n[nH]c2cc(Nc3cccc4c3C(=O)N(CC(=O)Nc3cnoc3)C4)cc(F)c12 [Example 65, 2-[7-[(4-fluoro-3-methyl-1H-indazol-6-yl)amino]-1-oxo-isoindolin-2-yl]-N-isoxazol-4-yl-acetamide] | 100 to 1000 |  |  | D (pIC50≤6)
Cc1n[nH]c2cc(Nc3cccc4c3C(=O)N(CC(=O)N[C@@H](C)C(F)(F)F)C4)cnc12 [Example 66, 2-[7-[(3-methyl-1H-pyrazolo[4,3-b]pyridin-6-yl)amino]-1-oxo-isoindolin-2-yl]-N-[(1S)-2,2,2-trifluoro-1-methyl-ethyl]acetamide] |  |  | A (pIC50>8) | A (pIC50>8)
Cc1n[nH]c2cc(Nc3cccc4c3C(=O)N(CC(=O)N3CCC[C@H]3C(F)(F)F)C4)cnc12 [Example 67, 7-[(3-methyl-1H-pyrazolo[4,3-b]pyridin-6-yl)amino]-2-[2-oxo-2-[(2S)-(trifluoromethyl)pyrrolidin-1-yl]ethyl]isoindolin-1-one] | < 10 | < 10 |  | 
Cc1n[nH]c2cc(Nc3cccc4c3C(=O)N(CC(=O)N3CCO[C@@H](C(F)(F)F)C3)C4)cnc12 [Example 68, 7-[(3-methyl-1H-pyrazolo[4,3-b]pyridin-6-yl)amino]-2-[2-oxo-2-[(2R)-(trifluoromethyl)morpholin-4-yl]ethyl]isoindolin-1-one] | 10 to 100 | 100 to 1000 |  | 

Results, then the molecule that gave them:

IC50 (Recombinant human DDR1) [nM] | IC50 (Recombinant human DDR2) [nM] | DDR1 pIC50 (Recombinant human DDR1) | DDR2 pIC50 (Recombinant human DDR2) | SMILES
10 to 100 | 100 to 1000 |  |  | Cc1n[nH]c2cc(Nc3cccc4c3C(=O)N(CC(=O)N3CCO[C@H](C(F)(F)F)C3)C4)cnc12 [Example 69, 7-[(3-methyl-1H-pyrazolo[4,3-b]pyridin-6-yl)amino]-2-[2-oxo-2-[(2S)-(trifluoromethyl)morpholin-4-yl]ethyl]isoindolin-1-one]
100 to 1000 | ≥ 1000 |  |  | Cc1n[nH]c2cc(Nc3cccc4c3C(=O)N(CC(=O)N3CCOC[C@H]3C(F)(F)F)C4)cnc12 [Example 70, 7-[(3-methyl-1H-pyrazolo[4,3-b]pyridin-6-yl)amino]-2-[2-oxo-2-[(3S)-(trifluoromethyl)morpholin-4-yl]ethyl]isoindolin-1-one]
10 to 100 | 10 to 100 |  |  | Cc1n[nH]c2cc(Nc3cccc4c3C(=O)N(CC(=O)N3CCOC[C@@H]3C(F)(F)F)C4)cnc12 [Example 71, 7-[(3-methyl-1H-pyrazolo[4,3-b]pyridin-6-yl)amino]-2-[2-oxo-2-[(3R)-(trifluoromethyl)morpholin-4-yl]ethyl]isoindolin-1-one]
< 10 | 10 to 100 |  |  | C[C@H](NC(=O)CN1Cc2cccc(Nc3cnc4[nH]ncc4c3)c2C1=O)C(F)(F)F [Example 73, 2-[1-oxo-7-(1H-pyrazolo[3,4-b]pyridin-5-ylamino)isoindolin-2-yl]-N-[(1S)-2,2,2-trifluoro-1-methyl-ethyl]acetamide]
< 10 | < 10 |  |  | O=C1c2c(cccc2Nc2cnc3[nH]ncc3c2)CN1CC(=O)N1CCC[C@H]1C(F)(F)F [Example 74, 2-[2-oxo-2-[(2S)-(trifluoromethyl)pyrrolidin-1-yl]ethyl]-7-(1H-pyrazolo[3,4-b]pyridin-5-ylamino)isoindolin-1-one]
10 to 100 | 100 to 1000 |  |  | O=C(CN1Cc2cccc(Nc3cnc4[nH]ncc4c3)c2C1=O)NC1CC1(F)F (centres unmarked) [Example 75, N-(2,2-difluorocyclopropyl)-2-[1-oxo-7-(1H-pyrazolo[3,4-b]pyridin-5-ylamino)isoindolin-2-yl]acetamide]
10 to 100 | 10 to 100 |  |  | CN(CC(F)(F)F)C(=O)CN1Cc2cccc(Nc3cnc4[nH]ncc4c3)c2C1=O [Example 76, N-methyl-2-[1-oxo-7-(1H-pyrazolo[3,4-b]pyridin-5-ylamino)isoindolin-2-yl]-N-(2,2,2-trifluoroethyl)acetamide]
10 to 100 | 10 to 100 |  |  | C[C@H](N(C)C(=O)CN1Cc2cccc(Nc3cnc4[nH]ncc4c3)c2C1=O)C(F)(F)F [Example 77, N-methyl-2-[1-oxo-7-(1H-pyrazolo[3,4-b]pyridin-5-ylamino)isoindolin-2-yl]-N-[(1S)-2,2,2-trifluoro-1-methyl-ethyl]acetamide]
10 to 100 | 100 to 1000 |  |  | Cc1n[nH]c2cc(N(C)c3cccc4c3C(=O)N(CC(=O)NCC(F)(F)F)C4)ccc12 [Example 78, 2-[7-[methyl-(3-methyl-1H-indazol-6-yl)amino]-1-oxo-isoindolin-2-yl]-N-(2,2,2-trifluoroethyl)acetamide]
10 to 100 |  |  | D (pIC50≤6) | Cn1ncc2cc(Nc3cccc4c3C(=O)N(CC(=O)NCC(F)(F)F)C4(F)F)ccc21 [Example 79, 2-[1,1-difluoro-4-[(1-methylindazol-5-yl)amino]-3-oxo-isoindolin-2-yl]-N-(2,2,2-trifluoroethyl)acetamide]
100 to 1000 | 100 to 1000 |  |  | CC(C)c1n[nH]c2cc(Nc3cccc4c3C(=O)N(CC(=O)NCC(F)(F)F)C4)ccc12 [Example 80, 2-[7-[(3-isopropyl-1H-indazol-6-yl)amino]-1-oxo-isoindolin-2-yl]-N-(2,2,2-trifluoroethyl)acetamide]
10 to 100 | 100 to 1000 |  |  | O=C(CN1Cc2cccc(Nc3ccc4cn[nH]c4c3)c2C1=O)NCC(F)(F)F [Example 81, 2-[7-(1H-indazol-6-ylamino)-1-oxo-isoindolin-2-yl]-N-(2,2,2-trifluoroethyl)acetamide]
